Source: paper PMC9970268 (Cancer Research Communications, 2022)

Tests used:
[1] = test system: PAK1/2/3; assay: Western blot of PAK phosphorylation in MDA-MB-231 cells; assay type: cell-based, human; conditions: MDA-MB-231, 250 nmol/L
Description: (§1) Total cell lysates or pulldowns were Western blotted using routine procedures. The primary antibodies used were anti-Rac (Cell Signaling Technology), anti-Cdc42 (Abcam), anti-PAK1+PAK2+PAK3 (Cell Signaling Technology), anti-pPAK1 (T423)/PAK2 (T402; Abcam), anti-PAK1 + PAK2 + PAK3 (phospho T423; Abcam), Rac1B, and β-actin (Millipore-Sigma).

[2] = target: Cdc42 (Homo sapiens, UniProt P60953); assay: Nucleotide association assay, induced by EDTA; assay type: biochemical; set-up: purchased Cytoskeleton, Inc; conditions: for EDTA-induced nucleotide loading of N-MAR-GTP on Cdc42: 2 and 10 μmol/L
Chain of Cdc42 (P60953 whole entry): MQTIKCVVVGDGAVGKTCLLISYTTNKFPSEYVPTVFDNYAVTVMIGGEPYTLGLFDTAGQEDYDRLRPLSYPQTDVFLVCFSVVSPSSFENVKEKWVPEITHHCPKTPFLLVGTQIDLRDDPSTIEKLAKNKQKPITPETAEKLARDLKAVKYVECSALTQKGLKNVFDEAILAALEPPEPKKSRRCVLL
Description: The nucleotide loading on purified Rho GTPases was monitored using a fluorophore-based Rho GEF Exchange Assay Kit as per manufacturer's instructions (Cytoskeleton, Inc.). Drugs were diluted in exchange buffer and incubated with Rac1, Cdc42, or RhoA. The uptake of fluorescent nucleotide analog N-methylanthraniloyl-GTP (N-MAR-GTP) was measured as an increase in fluorescence due to binding to the nucleotide binding pocket of a GTPase. The fluorimeter was set at 20°C on kinetic mode and N-MAR GTP was detected at […]. After the initial five readings (T0), GEFs (Dbs or Vav2) or Ethylenediaminetetraacetic acid (EDTA) was added to stimulate exchange and readings were obtained every 30 seconds for at least 60 cycles.

[3] = test system: Rac, Cdc42, RhoA, PAK, and p-PAK; assay: Western blot of tumor lysates from treated mice; assay type: in vivo, SCID mice; conditions: GFP-HER2-BM tumors, 5 mg/kg BW, 53 days
Description: Treatments continued until sacrifice at day 53.
as §1

[4] = test system: MDA-MB-231 cells; assay: Phalloidin staining of F-actin, cell phenotype; assay type: cell-based, human; conditions: 250 nmol/L, 12 hours
Description: Cells were fixed, permeabilized, and stained with rhodamine phalloidin to visualize F-actin as described previously ([23]). Fluorescence micrographs were acquired at 40× in a Keyence fluorescence microscope.

[5] = test system: Rho; assay: Rho activation assay (Rho.GTP-binding domain of Rhotekin); assay type: cell-based, human; conditions: 250 nmol/L
Description: Cells were lysed and equal amounts of proteins were subjected to pulldown assays using the p21-binding domain of PAK to isolate the GTP bound Rac1 or Cdc42. […] Top, Pulldown showing GTP bound Rac1; Middle, Total Rac1 in lysates; Bottom, Actin as a loading control. B, Right, Results from positive bands in Western blots quantified using ImageJ. […] Top band, Rac1B.GTP from the pulldown; Middle band, Total Rac1B from cell lysates; Bottom band, Actin (N = 3). […] Top, Pulldown showing GTP bound Cdc42; Middle, Total Cdc42 in lysates; Bottom, Actin as a loading control. E, Right, Results from positive bands in Western blots quantified using ImageJ. […] (n = 3–4; *, P < 0.05; **, P < 0.01; ns, not significant). Error bars represent SEM. […] Rho activation assay was done using the Rho.GTP-binding domain of Rhotekin. […] Cells were lysed and Western blotted for total and active PAK. Left, Top, Cell lysates probed with an anti PAK1/2/3 antibody; second, Western blot analysis with anti phospho (p)-PAK (1/2/3)^Ser141,144,154; third, Western blot analysis with p-PAK (1/2/3)^Thr423; fourth, Anti actin. H, Fold change in p-PAK/PAK for PAK 1/3 (68 kD) for total p-PAK^Ser141,144,154 and p-PAK^Thr423. (n = 3; **, P < 0.01; ***, P < 0.001; ns, not significant). […] Tumor lysates were Western blotted with antibodies specific for Rac1, Cdc42, PAK1/2/3, p-PAK (1/2/3)^Ser141,144,154, or p-PAK^Thr423. […]

[6] = target: T1, CYP2C9 (Homo sapiens, UniProt P11712); assay: CyP450 enzyme assay (P450-Glo); assay type: in vitro ADME; conditions: recombinant human CYP enzyme, 0.001–100 μmol/L
T1 construct: purchased Promega
T1 sequence (P11712 whole entry): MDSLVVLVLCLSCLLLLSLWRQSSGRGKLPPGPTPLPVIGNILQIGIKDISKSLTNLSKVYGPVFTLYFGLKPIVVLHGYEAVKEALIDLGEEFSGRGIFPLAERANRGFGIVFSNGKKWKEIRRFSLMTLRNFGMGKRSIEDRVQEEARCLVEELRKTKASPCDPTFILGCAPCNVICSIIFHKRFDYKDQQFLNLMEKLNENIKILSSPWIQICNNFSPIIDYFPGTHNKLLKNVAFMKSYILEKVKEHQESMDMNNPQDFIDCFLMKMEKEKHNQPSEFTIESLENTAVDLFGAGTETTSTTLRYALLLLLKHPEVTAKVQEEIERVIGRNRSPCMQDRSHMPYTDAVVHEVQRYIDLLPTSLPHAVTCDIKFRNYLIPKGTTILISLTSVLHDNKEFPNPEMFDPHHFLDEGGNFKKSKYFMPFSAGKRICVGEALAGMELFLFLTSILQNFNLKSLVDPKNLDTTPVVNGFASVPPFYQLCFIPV
Description: (§2) The assay was carried out using P450-Glo Screening System (Promega). The system contained recombinant human CYP enzyme and P450 reductase (and cytochrome b5 for CYP2C9, 2C19, and 3A4), luminogenic substrates appropriate for each CYP enzyme, a NADPH regeneration system (containing NADP+), and luciferin detection reagent. […] These compounds and organic solvents acetonitrile, and DMSO were purchased from Sigma-Aldrich.
(§3) First, 12.5 μL of the 4X stock solution of test compounds or positive controls (appropriate for each enzyme) were added to the “treated” wells. For the “untreated” (the values from these wells represent total CYP activity) and “minus-P450 control” wells (the values from these wells represent the CYP-independent background luminescence of the assay), 12.5 μL of vehicle was added. Then, 12.5 μL of the 4X control reaction mixture (containing membrane preparations devoid of CYP enzymes, the appropriate luminogenic substrate, and potassium phosphate buffer) were added to the minus-P450 control wells, and 12.5 μL of the 4X reaction mixture (containing human CYP membrane preparations, the appropriate luminogenic substrate, and potassium phosphate buffer) were added to all other wells. The plates were preincubated at room temperature for 10 minutes with the reaction mixture (membrane with enzyme, substrate, and 1 mol/L potassium phosphate buffer), and then 2X NADPH regeneration system was added to initiate the reaction. After incubation at room temperature for 30 minutes, 50 μL of the Luciferin Detection Reagent was added to stop the reaction and generate the luminescent signal. Before reading, the plate was incubated at room temperature for 20 minutes to stabilize the luminescent signal. The luminescence was measured using an Infinite F200 plate reader (Tecan). […] The percentage of CYP enzyme activity versus log concentration of test compounds were plotted to calculate the IC50 values.

[7] = target: T2, CYP2C19 (Homo sapiens, UniProt P33261); assay: CyP450 enzyme assay (P450-Glo); assay type: in vitro ADME
T2 construct: purchased Promega
T2 sequence (P33261 whole entry): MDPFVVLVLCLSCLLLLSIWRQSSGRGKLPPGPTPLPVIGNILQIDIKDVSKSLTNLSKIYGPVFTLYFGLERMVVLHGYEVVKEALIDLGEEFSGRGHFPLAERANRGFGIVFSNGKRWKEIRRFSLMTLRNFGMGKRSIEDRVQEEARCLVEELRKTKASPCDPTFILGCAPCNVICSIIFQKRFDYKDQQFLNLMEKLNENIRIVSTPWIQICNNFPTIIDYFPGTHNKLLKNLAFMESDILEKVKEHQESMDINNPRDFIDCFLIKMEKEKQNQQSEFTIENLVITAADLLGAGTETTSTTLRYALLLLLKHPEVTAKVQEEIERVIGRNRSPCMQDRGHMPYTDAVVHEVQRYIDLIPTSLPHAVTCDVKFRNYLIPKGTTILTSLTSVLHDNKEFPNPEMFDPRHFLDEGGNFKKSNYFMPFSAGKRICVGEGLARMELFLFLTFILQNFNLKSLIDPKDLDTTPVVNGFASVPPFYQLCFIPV
Description: as §2, §3

[8] = target: T3, CYP3A4 (Homo sapiens, UniProt P08684); assay: CyP450 enzyme assay (P450-Glo); assay type: in vitro ADME; conditions: for IC50: recombinant human CYP enzyme, 0.001–100 μmol/L
T3 construct: purchased Promega
T3 sequence (P08684 whole entry): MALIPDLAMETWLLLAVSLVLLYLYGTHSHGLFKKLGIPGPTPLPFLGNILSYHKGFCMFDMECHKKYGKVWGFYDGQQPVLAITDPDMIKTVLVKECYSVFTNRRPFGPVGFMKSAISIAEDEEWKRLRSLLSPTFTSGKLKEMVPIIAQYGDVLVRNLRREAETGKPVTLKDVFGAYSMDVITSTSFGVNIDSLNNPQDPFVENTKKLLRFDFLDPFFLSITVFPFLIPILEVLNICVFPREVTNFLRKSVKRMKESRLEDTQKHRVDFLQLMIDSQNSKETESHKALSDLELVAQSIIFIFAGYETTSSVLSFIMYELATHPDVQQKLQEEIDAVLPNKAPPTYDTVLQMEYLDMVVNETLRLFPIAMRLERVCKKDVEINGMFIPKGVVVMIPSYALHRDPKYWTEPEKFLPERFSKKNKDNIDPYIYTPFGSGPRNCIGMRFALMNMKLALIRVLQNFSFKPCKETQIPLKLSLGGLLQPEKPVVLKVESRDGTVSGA
Description: as §2, §3

Row | SMILES | reduction of p-PAK1/3 levels (Thr423) [1] | reduction of p-PAK2 S144 (61 kD band) [1] | reduction of p-PAK2 T423 (61 kD band) [1] | EDTA-induced nucleotide loading of N-MAR-GTP on Cdc42 [2] | Cdc42 and RhoA levels [3] | reduction of Thr 423 phosphorylation in PAKs 1, 2, 3 compared with vehicle [3] | reduction of p-Serine 141,144,154 levels in PAK1, 2, and 3 [3] | total Rac, and PAK1/2/3 levels [3] | cell phenotype, actin cytoskeleton [4] | Rho activation [5] | IC50 [6] [µM] | IC50 ([7]; recombinant human CYP enzyme, 0.001–100 μmol/L) [µM] | IC50 [8] [µM] | decrease of p-PAK ser 141, 154, PAK1/3 (68 kD band) [1] | inhibition at 10 µM ([2]; 10 μmol/L, N-MAR-GTP, read-out: inhibition of EDTA-induced GTP exchange on Cdc42) [%] | CYP2C19 IC50, fold lower than the IC50 for the positive control [7] | IC50 at 30 min ([7]; human, recombinant human CYP enzyme, 0.001–100 μmol/L) [µM] | potency at inhibiting CYP3A4, times less potent than MBQ-167 [8]
1 | CCn1c2ccccc2c2cc(-n3nncc3-c3ccccc3)ccc21 [MBQ-167] | approximately 75% | approximately 50% | approximately 60% | inhibited the nucleotide loading of N-MAR-GTP at 10 μmol/L | remain unaffected | approximately 50% | did not show changes | Decreases were observed | acquired a round shape with punctate actin staining | do not affect | 0.89 | 0.455 | 0.28 | – | – | – | – | –
2 | CCn1c2ccccc2c2cc(-n3nncc3-c3cccc(OC)c3)ccc21 [MBQ-168] | approximately 100% | approximately 50% | approximately 100% | reduced nucleotide loading at both 2 and 10 μmol/L | remain unaffected | approximately 50% | approximately 75% | Decreases were observed | acquired a round shape with punctate actin staining | do not affect | 0.67 | – | 3.18 | approximately 95% | 100 | approximately 6 fold | 0.523 | approximately 10 X
